Holding throughout (assay type): cell-based
Data set [1] relates to gamma secretase-dependent cleavage of the Notch protein (NotchΔE) in HeLa cells. The data set is described as follows: Notch processing split-luciferase assay (Notch intracellular domain release). To be noted: average of at least >4 replicates, read-out: Notch IC50 AVG. The text has this: Notch Processing: (Assay Quantitates Notch Intracellular Domain Release in Cell Lines):
A “split-luciferase” assay is used to measure inhibition of gamma secretase-dependent cleavage of the Notch protein. In this assay, HeLa cells were made to express a Notch protein lacking its extracellular domain (NotchΔE) fused to an N-terminal fragment of luciferase. The same cells also expressed a C-terminal fragment of luciferase fused to the immunoglobulin J kappa recombination signal sequence binding protein (RBP). Upon NotchΔE cleavage by gamma secretase, a Notch intracellular domain (NICD)-N terminal luciferase protein is generated which translocates to the nucleus and binds the RBP-C terminal luciferase fusion, bringing two independently nonfunctional halves of luciferase together to form a functional luciferase enzyme. The activity of luciferase in these cells is directly proportional to the amount of gamma secretase-cleaved Notch. Luciferase activity is determined by the standard techniques of luciferin addition to lysed cells and measurement of total luminescence.

Data set [2] deals with Aβ40 peptides generated from SH-SY5Y cells expressing amyloid β protein (SP4CT cells). The data set can be described thus: APP processing AlphaLisa assay, secreted Aβ40. As to conditions: average of at least >4 replicates, read-out: AB40 IC50 AVG. On the procedure: (§1) APP Processing (Assay Quantitates Secreted Aβ Analytes from Cell Lines):
(§2) The effect of compounds on the abundance of Aβ40 and Aβ42 peptides generated from SH-SY5Y cells expressing amyloid β protein (SP4CT cells) was determined by an AlphaLisa™ assay. Analogous to an ELISA assay, generation of signal in this AlphaLisa™ assay requires “donor” and “acceptor” beads to be brought in close proximity by specific antibody recognition of either Aβ40 or Aβ42 peptides. The assay was accomplished by removing media from compound-treated SP4CT cells to two different microplates, followed by the addition of donor beads conjugated with streptavidin binding a biotinylated anti-amyloid β monoclonal antibody (clone 4G8). Acceptor beads directly conjugated with anti-Aβ40 monoclonal antibody (G210) were added to one microplate and anti-Aβ42 monoclonal antibody (12F4) acceptor beads were added to the other. Abundance of Aβ40 and Aβ42 was directly proportional to the luminescent signal generated following excitation of donor beads by laser light.
(In Alpha technology, singlet oxygen from a donor bead excites a nearby acceptor bead.)

In data set [3] the target is T1, pregnane X receptor (PXR) (Homo sapiens, UniProt O75469).
T1 construct: expressed in transfected cells; host or cells: HEP G2
T1 sequence (O75469 1-434): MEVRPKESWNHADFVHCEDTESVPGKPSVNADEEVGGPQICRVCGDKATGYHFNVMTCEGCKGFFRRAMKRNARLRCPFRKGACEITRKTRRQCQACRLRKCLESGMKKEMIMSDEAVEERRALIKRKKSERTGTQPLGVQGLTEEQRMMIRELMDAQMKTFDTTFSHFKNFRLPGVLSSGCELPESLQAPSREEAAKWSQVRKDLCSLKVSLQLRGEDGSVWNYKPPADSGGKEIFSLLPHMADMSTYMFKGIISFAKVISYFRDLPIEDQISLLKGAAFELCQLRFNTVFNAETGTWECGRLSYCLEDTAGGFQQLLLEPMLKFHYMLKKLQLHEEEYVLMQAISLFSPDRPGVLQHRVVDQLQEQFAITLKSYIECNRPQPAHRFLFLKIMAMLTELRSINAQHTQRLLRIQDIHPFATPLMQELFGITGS
T1 sequence (P19793 1-462 partner): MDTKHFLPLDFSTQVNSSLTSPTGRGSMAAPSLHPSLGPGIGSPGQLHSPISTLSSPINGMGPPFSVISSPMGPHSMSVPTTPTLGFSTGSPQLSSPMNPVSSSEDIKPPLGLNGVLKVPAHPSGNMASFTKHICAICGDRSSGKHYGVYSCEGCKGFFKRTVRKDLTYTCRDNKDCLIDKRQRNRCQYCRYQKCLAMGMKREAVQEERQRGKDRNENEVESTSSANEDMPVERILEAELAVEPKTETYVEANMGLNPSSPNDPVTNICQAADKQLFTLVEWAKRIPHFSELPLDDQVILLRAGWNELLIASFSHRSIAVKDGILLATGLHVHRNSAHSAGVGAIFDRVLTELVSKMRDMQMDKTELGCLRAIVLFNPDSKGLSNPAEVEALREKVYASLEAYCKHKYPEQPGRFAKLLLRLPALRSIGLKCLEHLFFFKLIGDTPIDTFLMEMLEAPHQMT
The data set can be described thus: PXR assay (CYP3A4-SEAP transactivation assay, PCSTA). As to conditions: for pEC50: HEP G2 cells. The source says: The CYP3A4-SEAP transactivation assay (PCSTA) effectively and rapidly evaluates compounds for their potential to induce cytochrome P450 CYP3A (human CYP3A4 or rat CYP3A1). The reporter construct contains regulatory regions from the CYP3A4 gene positioned just upstream of a secreted alkaline phosphatase (SEAP) gene. The human PXR nuclear receptor has been modified at the 5′-end so that methionine is the initiating amino acid replacing leucine found in the wild-type sequence. HEP G2 cells are transfected with the PXR plasmid (human or rat) and the reporter plasmid. Read-out for the induction of CYP3A4 consists of a SEAP calorimetric assay with para-nitro-phenyl phosphate (pNPP) as the substrate. Five point dose-response curves in duplicate are then generated with each point corresponding to the rate of conversion of pNPP to pNP by SEAP. For the human PCSTA, rifampicin is used as the positive control and 100% induction is based upon the maximum induction produced by rifampicin at 10 μM.

Data set [4] relates to Aβ42 peptides generated from SH-SY5Y cells expressing amyloid β protein (SP4CT cells). The data set can be described thus: APP processing AlphaLisa assay, secreted Aβ42. As to conditions: average of at least >4 replicates, read-out: AB42 IC50 AVG. The procedure: as §1, §2

pEC50, pIC50: −log10 of the molar value. Read-outs that look alike come from different tables or passages of the source.

Take `O=S(=O)(N[C@H]1C[C@](c2cc(F)ccc2F)(S(=O)(=O)c2ccc(Cl)cc2)C1)C(F)(F)F` [Example 1, N-[trans-3-[(4-chlorophenyl)sulfonyl]-3-(2,5-difluorophenyl)cyclobutyl]-1,1,1-trifluoromethanesulfonamide]: the pIC50 (as a rule, the IC50 on a negative log10 scale, so that one unit is a factor of ten) in data set [1] (Homo sapiens, HeLa) was 4.30; in data set [2] (Homo sapiens, SH-SY5Y) it was 6.82; in data set [4] (Homo sapiens, SH-SY5Y), 6.93. The pEC50 (commonly the negative decadic logarithm of the EC50, by convention in mol/L) in data set [3] is 5.91.

With `N#Cc1ccc(F)cc1[C@]1(S(=O)(=O)c2ccc(Cl)cc2)C[C@@H](NS(=O)(=O)C(F)(F)F)C1` [Example 3, N-[cis-3-[(4-chlorophenyl)sulfonyl]-3-(2-cyano-5-fluorophenyl)cyclobutyl]-1,1,1-trifluoromethanesulfonamide], the pIC50 was 5.49 in data set [1] (Homo sapiens, HeLa); 7.15 in data set [2] (Homo sapiens, SH-SY5Y); 7.18 in data set [4] (Homo sapiens, SH-SY5Y). The “PXR % Activation @ 10 uM” value in data set [3] turned out to be 92.3%. In data set [3], the pEC50 was 6.15.

With `O=S(=O)(N[C@H]1C[C@@](c2cc(Cl)ccc2Cl)(S(=O)(=O)c2ccc(Cl)cc2)C1)C(F)(F)F` [Example 4, N-[cis-3-[(4-chlorophenyl)sulfonyl]-3-(2,5-dichlorophenyl)cyclobutyl]-1,1,1-trifluoromethanesulfonamide], the pIC50 in data set [1] (Homo sapiens, HeLa) was 5.71; in data set [2] (Homo sapiens, SH-SY5Y) it was 7.15; in data set [4] (Homo sapiens, SH-SY5Y), 7.11. Further, the “PXR % Activation @ 10 uM” value in data set [3] is given as 70.7%. In data set [3], the pEC50 was 5.71.

As for `O=S(=O)(NC1CC(c2cc(F)ccc2F)(S(=O)(=O)c2ccc(C(F)(F)F)cc2)C1)C(F)(F)F` (stereo not drawn) [Example 5, N-(cis-3-(2,5-difluorophenyl)-3-{[4-(trifluoromethyl)phenyl]sulfonyl}cyclobutyl)-1,1,1-trifluoromethanesulfonamide], the pIC50 in data set [1] (Homo sapiens, HeLa) is 5.42; in data set [2] (Homo sapiens, SH-SY5Y), 7.00; in data set [4] (Homo sapiens, SH-SY5Y) it was 7.04. Also, the “PXR % Activation @ 10 uM” value in data set [3] was found to be 64.4%. This molecule showed a pEC50 in data set [3] of 5.28.

As for `O=S(=O)(NC1CC(c2cc(Cl)ccc2F)(S(=O)(=O)c2ccc(Cl)cc2)C1)C(F)(F)F` (stereo not drawn) [Example 6, N-{cis-3-(5-chloro-2-fluorophenyl)-3-[(4-chlorophenyl)sulfonyl]cyclobutyl}-1,1,1-trifluoromethanesulfonamide], the pIC50 in data set [1] (Homo sapiens, HeLa) was 5.25; in data set [2] (Homo sapiens, SH-SY5Y), 6.89; in data set [4] (Homo sapiens, SH-SY5Y), 6.98. Also, in data set [3], the “PXR % Activation @ 10 uM” value stood at 79.2%. Also, the pEC50 in data set [3] was 5.70.

Turning to `O=S(=O)(NC1CC(c2cc(F)ccc2F)(S(=O)(=O)c2ccc(F)cc2)C1)C(F)(F)F` (stereo not drawn) [Example 7, N-{cis-3-(2,5-difluorophenyl)-3-[(4-fluorophenyl)sulfonyl]cyclobutyl}-1,1,1-trifluoromethanesulfonamide], the pIC50 in data set [1] (Homo sapiens, HeLa) is 5.51; in data set [2] (Homo sapiens, SH-SY5Y), 7.17; in data set [4] (Homo sapiens, SH-SY5Y), 7.24. In data set [3], the “PXR % Activation @ 10 uM” value came out at 113.2%. Also, the negative logarithm of the EC50 (pEC50) in data set [3] was 6.12.

Regarding `O=S(=O)(NC1CC(c2cc(F)ccc2F)(S(=O)(=O)c2ccc(F)c(F)c2)C1)C(F)(F)F` (stereo not drawn) [Example 8, N-{cis-3-(2,5-difluorophenyl)-3-[(3,4-difluorophenyl)sulfonyl]cyclobutyl}-1,1,1-trifluoromethanesulfonamide], the pIC50 is 5.50 in data set [1] (Homo sapiens, HeLa); 7.10 in data set [2] (Homo sapiens, SH-SY5Y); 7.20 in data set [4] (Homo sapiens, SH-SY5Y). Moreover, the “PXR % Activation @ 10 uM” value in data set [3] is reported as 82.3%. The molecule also gave a pEC50 in data set [3] of 5.90.

Consider `N#Cc1ccc(S(=O)(=O)C2(c3cc(F)ccc3F)CC(NS(=O)(=O)C(F)(F)F)C2)cc1` (stereo not drawn) [Example 9, N-[cis-3-[(4-cyanophenyl)sulfonyl]-3-(2,5-difluorophenyl)cyclobutyl]-1,1,1-trifluoromethanesulfonamide], for which the pIC50 is 5.05 in data set [1] (Homo sapiens, HeLa); 6.58 in data set [2] (Homo sapiens, SH-SY5Y); 6.64 in data set [4] (Homo sapiens, SH-SY5Y). For the same molecule, the “PXR % Activation @ 10 uM” value in data set [3] came to 54.9%. The molecule further gave a pEC50 in data set [3] of 5.08.

Consider `O=C(O)CCCN([C@H]1C[C@@](c2cc(F)ccc2F)(S(=O)(=O)c2ccc(Cl)cc2)C1)S(=O)(=O)C(F)(F)F` [Example 10, 4-{[cis-3-[(4-chlorophenyl)sulfonyl]-3-(2,5-difluorophenyl)cyclobutyl][(trifluoromethyl)sulfonyl]amino}butanoic acid], for which the pIC50 is 5.08 in data set [1] (Homo sapiens, HeLa); 7.45 in data set [2] (Homo sapiens, SH-SY5Y); 7.51 in data set [4] (Homo sapiens, SH-SY5Y). Further, in data set [3], the “PXR % Activation @ 10 uM” value came to 76.7%. The molecule also had a pEC50 in data set [3] of 5.91.

As to `O=S(=O)(N(CCOC1CCCCO1)[C@H]1C[C@@](c2cc(F)ccc2F)(S(=O)(=O)c2ccc(Cl)cc2)C1)C(F)(F)F` (stereo partly drawn) [Example 11, N-[cis-3-[(4-chlorophenyl)sulfonyl]-3-(2,5-difluorophenyl)cyclobutyl]-1,1,1-trifluoro-N-[2-(tetrahydro-2-pyran-2-yloxy)ethyl]methanesulfonamide], the pIC50 was 5.60 in data set [1] (Homo sapiens, HeLa); 7.36 in data set [2] (Homo sapiens, SH-SY5Y); 7.43 in data set [4] (Homo sapiens, SH-SY5Y). For the same molecule, the “PXR % Activation @ 10 uM” value in data set [3] is recorded as 86.5%. Besides, the pEC50 in data set [3] is 6.08.

Take `COC(=O)CN([C@H]1C[C@@](c2cc(F)ccc2F)(S(=O)(=O)c2ccc(Cl)cc2)C1)S(=O)(=O)C(F)(F)F` [Example 12, Methyl {[cis-3-[(4-chlorophenyl)sulfonyl]-3-(2,5-difluorophenyl)cyclobutyl][(trifluoromethyl)sulfonyl]amino}acetate]: the pIC50 in data set [1] (Homo sapiens, HeLa) was 4.88; in data set [2] (Homo sapiens, SH-SY5Y), 7.01; in data set [4] (Homo sapiens, SH-SY5Y) it was 6.93. For the same molecule, the pEC50 in data set [3] was 5.80.

Take `CN(C1CC(c2cc(F)ccc2F)(S(=O)(=O)c2ccc(Cl)cc2)C1)S(=O)(=O)C(F)(F)F` (stereo not shown) [Example 13, N-[3-[(4-chlorophenyl)sulfonyl]-3-(2,5-difluorophenyl)cyclobutyl]-1,1,1-trifluoro-N-methylmethanesulfonamide]: the pIC50 in data set [1] is 5.32; in data set [2], 7.74; in data set [4] it was 7.72. The same molecule showed a negative logarithm of the EC50 (pEC50) in data set [3] of 5.90.

In the case of `CN(C1CC(c2cc(F)ccc2F)(S(=O)(=O)c2ccc(Cl)cc2)C1)S(=O)(=O)C(F)(F)F` (stereo not shown) [Example 14, N-[3-[(4-chlorophenyl)sulfonyl]-3-(2,5-difluorophenyl)cyclobutyl]-1,1,1-trifluoro-N-methylmethanesulfonamide], the pIC50 in data set [1] was 5.01; in data set [2], 7.05; in data set [4], 7.01. Further, the pEC50 in data set [3] was 6.08.

The values above are taken from US8759579B2, “Cyclobutyl sulfones as notch sparing gamma secretase inhibitors” (Merck Sharp & Dohme Corp., priority 2008, dated 2014).
